These results are taken from ChEMBL document CHEMBL1132774, “Tetrahydroisoquinoline derivatives containing a benzenesulfonamide moiety as potent, selective human beta3 adrenergic receptor agonists” (Bioorg Med Chem Lett, 2000).

The target of assay [1] is T1, Beta-3 adrenergic receptor (Homo sapiens, UniProt P13945). The assay can be described thus: Compound was evaluated for its inhibitory activity against human beta-3 adrenergic receptor (AR) at a concentration of 100 nM. The format is functional.
Target sequence in this assay (P13945 whole entry): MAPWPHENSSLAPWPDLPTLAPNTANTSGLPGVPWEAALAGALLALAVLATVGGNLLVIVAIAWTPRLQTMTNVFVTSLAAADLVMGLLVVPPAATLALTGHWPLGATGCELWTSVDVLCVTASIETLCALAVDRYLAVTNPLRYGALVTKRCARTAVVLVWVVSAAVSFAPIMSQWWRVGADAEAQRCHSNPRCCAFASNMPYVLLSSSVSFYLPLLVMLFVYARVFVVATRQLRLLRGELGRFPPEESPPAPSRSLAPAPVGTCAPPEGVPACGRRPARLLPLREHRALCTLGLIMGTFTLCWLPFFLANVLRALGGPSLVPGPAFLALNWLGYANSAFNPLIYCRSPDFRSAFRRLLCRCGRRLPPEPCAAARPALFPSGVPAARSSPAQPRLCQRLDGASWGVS
Assay [2] deals with T2, Beta-2 adrenergic receptor (Homo sapiens, UniProt P07550). The assay can be described thus: Inhibitory activity against CHO cells expressing human Beta-2 adrenergic receptor with [125I]-iodocyanopindolol. It is filed as cell-based.
Target sequence in this assay (P07550 whole entry): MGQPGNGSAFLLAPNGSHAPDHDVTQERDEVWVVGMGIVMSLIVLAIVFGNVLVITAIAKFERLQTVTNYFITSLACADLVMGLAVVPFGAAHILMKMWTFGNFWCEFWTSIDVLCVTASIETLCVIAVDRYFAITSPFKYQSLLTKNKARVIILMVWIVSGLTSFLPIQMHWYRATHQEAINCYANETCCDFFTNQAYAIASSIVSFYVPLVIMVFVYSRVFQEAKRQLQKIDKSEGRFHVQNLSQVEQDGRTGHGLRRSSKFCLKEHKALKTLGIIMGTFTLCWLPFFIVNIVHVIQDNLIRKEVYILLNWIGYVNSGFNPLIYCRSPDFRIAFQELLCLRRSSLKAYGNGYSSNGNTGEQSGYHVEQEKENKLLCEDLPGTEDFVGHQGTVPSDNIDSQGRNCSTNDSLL
For assay [3], the target named is T3, Beta-1 adrenergic receptor (Homo sapiens, UniProt P08588). The assay can be described thus: Compound was evaluated for its inhibitory activity against CHO cells expressing the cloned human Beta-1 adrenergic receptor in the presence of [125I]iodocyanopindolol. The format is cell-based.
Target sequence in this assay (P08588 whole entry): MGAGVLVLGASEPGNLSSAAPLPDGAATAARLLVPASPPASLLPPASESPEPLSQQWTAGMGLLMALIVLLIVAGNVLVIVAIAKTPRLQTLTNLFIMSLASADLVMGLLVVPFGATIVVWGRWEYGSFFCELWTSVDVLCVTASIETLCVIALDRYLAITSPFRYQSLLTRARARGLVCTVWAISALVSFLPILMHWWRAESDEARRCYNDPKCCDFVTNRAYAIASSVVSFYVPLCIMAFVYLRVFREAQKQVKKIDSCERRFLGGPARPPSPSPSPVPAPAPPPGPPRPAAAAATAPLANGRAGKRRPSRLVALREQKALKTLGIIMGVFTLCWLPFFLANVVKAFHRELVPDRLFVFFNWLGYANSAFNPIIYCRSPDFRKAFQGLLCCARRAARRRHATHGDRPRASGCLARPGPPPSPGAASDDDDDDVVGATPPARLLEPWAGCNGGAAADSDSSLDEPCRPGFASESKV
Assay [4] has as its target T1, Beta-3 adrenergic receptor. The assay can be described thus: Adenylyl cyclase activation at human beta-3 adrenergic receptor (AR). It is filed as functional. Also noted: concentration or dose not given beside the values.
Target sequence in this assay (P13945 whole entry, looked up): as the sequence (P13945 whole entry) above
In assay [5] the target is T1, Beta-3 adrenergic receptor. Put plainly: Inhibitory activity against human beta-3 adrenergic receptor (AR). The format is functional.
Target sequence in this assay (P13945 whole entry): as above
The target of assay [6] is T3, Beta-1 adrenergic receptor. The assay can be described thus: (§1) Compound was evaluated for its adenylyl cyclase activation at human beta-1 adrenergic receptor (AR).
Target sequence in this assay (P08588 whole entry, looked up): as the sequence (P08588 whole entry) above
Assay [7] concerns the target T3, Beta-1 adrenergic receptor. The assay can be described thus: Compound was evaluated for its inhibitory activity against human beta-1 adrenergic receptor (AR). It is filed as functional.
Target sequence in this assay (P08588 whole entry): as above
Assay [8] has as its target T2, Beta-2 adrenergic receptor. The assay can be described thus: Compound was evaluated for its inhibitory activity against human beta-2 adrenergic receptor (AR). The format is functional.
Target sequence in this assay (P07550 whole entry): as the sequence (P07550 whole entry) above
For assay [9], the target named is T2, Beta-2 adrenergic receptor. The assay can be described thus: Compound was evaluated for its inhibitory activity against CHO cells expressing the cloned human beta-2 adrenergic receptor (AR) in the presence of [125I]-iodocyanopindolol. It is filed as functional, cell-based.
Target sequence in this assay (P07550 whole entry): as above
The target in assay [10] is T3, Beta-1 adrenergic receptor. The assay can be described thus: Compound was evaluated for its inhibitory activity against CHO cells expressing the cloned human beta-1 adrenergic receptor (AR) in the presence of [125I]iodocyanopindolol. The format is functional, cell-based.
Target sequence in this assay (P08588 whole entry): as the sequence (P08588 whole entry) above
The target in assay [11] is T3, Beta-1 adrenergic receptor. The assay is described as §1. The format is functional. Also noted: concentration or dose not given beside the values.
Target sequence in this assay (P08588 whole entry, looked up): as the sequence (P08588 whole entry) above
In assay [12] the target is T3, Beta-1 adrenergic receptor. The assay can be described thus: Compound was evaluated for its inhibitory activity against CHO cells expressing the cloned human beta-1 adrenergic receptor (AR) in the presence of [125I]-iodocyanopindolol. It is filed as cell-based.
Target sequence in this assay (P08588 whole entry): as above
The target of assay [13] is T2, Beta-2 adrenergic receptor. Put plainly: Compound was evaluated for its adenylyl cyclase activation at human beta-2 adrenergic receptor (AR). It is filed as functional.
Target sequence in this assay (P07550 whole entry, looked up): as the sequence (P07550 whole entry) above

As to `CCCCCCNC(=O)Nc1ccc(S(=O)(=O)Nc2cccc(-c3ccc(OCC4NCCc5cc(O)c(O)cc54)cc3)c2)cc1` (stereo not given), in [1], the EC50 came out at 10 nM. In addition, the IC50 in [2] is 990 nM; in [3] it was 6500 nM.

Turning to `CCCCCCNC(=O)Nc1ccc(S(=O)(=O)Nc2ccc(CC3NCCc4cc(O)c(O)cc43)cc2)cc1` (stereo not given), the half-maximal inhibitory concentration (IC50) in assay [2] turned out to be 200 nM; in assay [3], 1200 nM. Besides, the Activation in assay [4] turned out to be 82%. The same compound had an EC50 in [5] of 66 nM.

With `CCCCCCNC(=O)Nc1ccc(S(=O)(=O)Nc2ccc(-c3ccc(OCC4NCCc5cc(O)c(O)cc54)cc3)cc2)cc1` (stereo not given), the Activation came to 72% in assay [4] and 23% in assay [6]. In addition, the EC50 in [7] was determined as 2400 nM; in assay [5] it was 16 nM; in assay [8] it was 580 nM. For the same compound, the IC50 in assay [3] turned out to be 2000 nM; in assay [9], 160 nM.

Turning to `CCCCCCNC(=O)Nc1ccc(S(=O)(=O)Nc2ccc(-c3ccc(CC4NCCc5cc(O)c(O)cc54)cc3)cc2)cc1` (stereo not given), the values for the Activation in assay [4] and in [11] were 91% and 44%, respectively. Besides, the IC50 in assay [10] was 3000 nM; in [9], 3400 nM. The EC50 in assay [7] came to 1800 nM; in assay [5], 6 nM; in [8], 340 nM.

`COc1c(I)cc(CC2NCCc3nc(N)sc32)cc1I` (stereo not given) registered a concentration for half-maximal inhibition (IC50) in assay [2] of 56 nM. Further, the Activation in assay [4] came out at 36%. This compound displayed an EC50 in assay [5] of 800 nM.

With `CCCCCCNC(=O)Nc1ccc(S(=O)(=O)Nc2ccc(OCC3NCCc4cc(O)c(O)cc43)cc2)cc1` (stereo not given), the concentration giving a half-maximal response (EC50) in [1] turned out to be 4 nM. Further, the IC50 stood at 300 nM in [2] and 1000 nM in assay [3].

As for `CCCCCCNC(=O)Nc1ccc(S(=O)(=O)Nc2cccc(-c3ccc(CC4NCCc5cc(O)c(O)cc54)cc3)c2)cc1` (stereo not given), the Activation in [4] was 100%; in assay [11] it was 69%. Further, the half-maximal inhibitory concentration (IC50) in assay [10] was determined as 10000 nM; in [9], 32000 nM. The EC50 amounted to 970 nM in assay [7], 140 nM in [5] and 1300 nM in assay [8].

In assay [4], `COc1cc(C[C@@H]2NCCc3cc(O)c(O)cc32)cc(OC)c1OC` [TRETOQUINOL] displayed an Activation of 92%. In assay [5], this compound yielded a 50% effective concentration (EC50) of 1.7 nM.

On to `COc1cc(-c2ccc(CC3NCCc4cc(O)c(O)cc43)cc2)cc(OC)c1OC` (stereo not given), for which the figures for the IC50 in assay [2] and in [12] were 760 nM and 1800 nM, respectively. Besides, the Activation in assay [4] turned out to be 77%; in assay [11] it was 45%. Moreover, the 50% effective concentration (EC50) came to 6100 nM in [7], 27 nM in [5] and 1500 nM in assay [8].

In the case of `CCCCCCNC(=O)Nc1ccc(S(=O)(=O)Nc2cccc(-c3cccc(CC4NCCc5cc(O)c(O)cc54)c3)c2)cc1` (stereo not given), the IC50 in [2] was 710 nM; in assay [10], 530 nM. Further, the results for the Activation in assay [4] and in assay [11] were 62% and 22%, respectively. Further, the EC50 in [7] is over 10000 nM; in [5], 360 nM; in assay [8] it was 2700 nM.

Consider `CCCCCCNC(=O)Nc1ccc(S(=O)(=O)Nc2ccc3cc(CC4NCCc5cc(O)c(O)cc54)ccc3c2)cc1` (stereo not given), for which, in assay [1], the EC50 amounted to 7 nM. The 50% inhibitory concentration (IC50) in assay [2] worked out at 300 nM; in assay [3], 1000 nM.

Take `CCCCCCNC(=O)Nc1ccc(S(=O)(=O)Nc2ccc(-c3cccc(CC4NCCc5cc(O)c(O)cc54)c3)cc2)cc1` (stereo not given): the IC50 in assay [2] and in assay [10] was 100000 nM in each case. The figures for the Activation in assay [4], in assay [13] and in assay [11] were 64%, 33% and 12%, respectively. Besides, the EC50 in assay [7] was over 1000 nM; in assay [5], 600 nM; in assay [8], over 1000 nM.

Regarding `CCCCCCNC(=O)Nc1ccc(S(=O)(=O)Nc2ccc3cc(OCC4NCCc5cc(O)c(O)cc54)ccc3c2)cc1` (stereo not given), the IC50 was over 100000 nM in assay [2] and 80000 nM in [3]. In [4], this compound came in with an Activation of 72%. In [5], this compound yielded a concentration giving a half-maximal response (EC50) of 78 nM.
